These are literature values, as cited in patent US20260091069A1, “TRANS[…] TRA[…] REGULATED ONCOLYTIC HERPES SIMPLEX VIRUS VECTORS” (VIROGIN BIOTECH CANADA LTD, priority 2021, published 2026).

For this series the following is noted: clinical dose of Ganciclovir.

Consider `Nc1nc(O)c2ncn(COC(CO)CO)c2n1` [Ganciclovir], for which the Cmax in humans is 9000 ng/mL.
